IC50 and CC50 data for 1 compound are collected here from paper PMC10590419, “Structural and mechanistic insights into the inhibition of respiratory syncytial virus polymerase by a non-nucleoside inhibitor” (Communications Biology, 2023).

Series [1] concerns the target T1, Human DNA polymerase gamma (Homo sapiens, UniProt P54098).
T1 construct: purchased Abcam
T1 sequence (P54098 1-1239): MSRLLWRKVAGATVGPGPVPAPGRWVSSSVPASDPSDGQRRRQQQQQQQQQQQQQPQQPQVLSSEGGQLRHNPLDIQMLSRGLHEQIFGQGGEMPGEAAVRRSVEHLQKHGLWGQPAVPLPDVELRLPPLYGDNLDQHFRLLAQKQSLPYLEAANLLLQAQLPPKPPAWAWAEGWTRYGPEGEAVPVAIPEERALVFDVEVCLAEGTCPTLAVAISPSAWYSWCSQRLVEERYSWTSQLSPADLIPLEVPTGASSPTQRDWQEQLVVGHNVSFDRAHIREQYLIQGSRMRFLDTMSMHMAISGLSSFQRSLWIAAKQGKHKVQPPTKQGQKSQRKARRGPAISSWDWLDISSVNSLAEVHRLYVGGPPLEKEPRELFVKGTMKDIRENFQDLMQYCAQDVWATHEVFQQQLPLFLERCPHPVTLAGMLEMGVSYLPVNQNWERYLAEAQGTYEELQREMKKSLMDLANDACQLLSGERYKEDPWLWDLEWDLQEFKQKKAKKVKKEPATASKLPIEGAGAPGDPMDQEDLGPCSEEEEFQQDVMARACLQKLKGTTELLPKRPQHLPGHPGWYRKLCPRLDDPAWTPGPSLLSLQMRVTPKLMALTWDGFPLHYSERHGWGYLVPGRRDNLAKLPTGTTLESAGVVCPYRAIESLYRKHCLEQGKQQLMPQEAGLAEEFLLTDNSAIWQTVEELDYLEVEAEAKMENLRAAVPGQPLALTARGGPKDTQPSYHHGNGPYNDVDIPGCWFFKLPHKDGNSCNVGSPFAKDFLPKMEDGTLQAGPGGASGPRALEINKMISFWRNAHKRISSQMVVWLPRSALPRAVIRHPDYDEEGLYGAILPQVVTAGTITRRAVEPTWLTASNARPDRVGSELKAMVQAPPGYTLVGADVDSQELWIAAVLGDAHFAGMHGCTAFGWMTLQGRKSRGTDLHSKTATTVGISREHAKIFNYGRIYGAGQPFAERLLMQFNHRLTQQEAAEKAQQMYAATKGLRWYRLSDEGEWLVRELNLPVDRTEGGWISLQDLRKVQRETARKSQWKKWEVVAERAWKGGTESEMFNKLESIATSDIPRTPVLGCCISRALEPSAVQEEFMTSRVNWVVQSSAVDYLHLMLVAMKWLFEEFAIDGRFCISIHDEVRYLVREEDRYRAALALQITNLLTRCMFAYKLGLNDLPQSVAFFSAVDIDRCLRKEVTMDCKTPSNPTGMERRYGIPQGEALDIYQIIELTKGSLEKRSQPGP
Kind of series: DNA-dependent DNA polymerase activity. Format: biochemical. The following applies: DNA Pol γ. The method, then:
to the method described previously 1. A 25 nM solution of RSV MTase-CTD protein or RSV L+P complex was incubated with 0.7 µM or 1.8 µM purified synthetic RNA 5’-Gppp […]
[…] (RSV9) for the MTase-CTD or L+P complex, respectively; 2 µM or 0.17 µM S-adenosyl methionine (SAM) for the MTase-CTD or L–P complex, respectively; and 0.1 µM or 0.8 µM 3H-SAM (Perkin Elmer) for the MTase-CTD or L–P complex, respectively; in 50 mM Tris-HCl pH 8.0. Compounds, previously dissolved in DMSO were added at a final concentration of 50 µM or 200 µM. After 3 h incubation at 30°C, reactions were quenched by a 20-fold dilution in ice cold water. Samples were transferred to DEAE filtermats (Perkin Elmer) using a Filtermat Harvester (Packard Instruments). The RNA-retaining mats were washed twice with 10 mM ammonium formate pH 8.0, twice with water and once with ethanol. They were then soaked with scintillation fluid (Perkin Elmer), and 3H-methyl transfer to the RNA substrates was determined using a Wallac MicroBeta TriLux Liquid Scintillation Counter.
Cellular polymerase assays
DNA-dependant DNA polymerase (DdDp) activity
Human DNA polymerases alpha (CHIMERx) at 5 U/ml, beta (CHIMERx) at 0.5 U/ml and gamma (Abcam) at 0.1 mg/ml were incubated with the tested inhibitors at specified concentrations, and a reaction mix composed of 62 µg/ml activated calf thymus DNA, dGTP (2 µM), dATP (2 µM), dCTP (2 µM), [ 3H]dTTP (0.05 µCi/µl), 0.1 mg/ml BSA and a buffer composed of Tris-HCl pH 8 (50 mM), MgCl 2 (5 mM), KCl (60 mM), and DTT (4 mM.) in a total volume of 50 µl. After 2 hours incubation at 30°C, reaction was terminated by addition of 60 µl of a chilled stop solution composed of 20% (w/v) TCA with 0.5 mM ATP. […] Radioactivity was measured via liquid scintillation counting (MicroScint-20, 40µl) on a TriLux apparatus. […]
The RNA transcription activity of human mitochondrial RNA polymerase (POLRMT) was measured by the incorporation of radioactively labeled nucleotides by POLRMT into acid-insoluble RNA products as described previously 2. […]

A further series is described as follows: in vitro. The following applies: human.

Each structure is given as a SMILES string.

As a reminder, the IC50 is the point on the concentration scale where inhibition reaches its midpoint. Low readings indicate greater potency in that assay, high ones weaker potency in that assay.

For the compound `COc1cc(C(=O)NC[C@](O)(c2cc(C(C)(C)O)c(F)c(-c3ccc(F)cc3)n2)C(F)(F)F)cc2cc(C)nnc12` [JNJ-8003], in series [1], the IC50 was above 100 µM. Besides, the CC50 at 3 days in the series “in vitro” was found to be 27 µM.
